Measured values taken from patent publication US11696913B2, “Prolonged ectoparasite-controlling agent for animal” (MITSUI CHEMICALS AGRO, INC., priority 2017, dated 2023).
Where two headings read alike, the source gives them in different places.

Columns and labels:
[1] = test system: Ixodes ricinus; assay: In vitro contact test with adult hard ticks (Ixodes ricinus); details: read-out: acaricidal activity
Outline: (§1)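 Adult R. sanguineus, I. ricinus, D. variabilis or A. americanum nymphs exposed in glass vials coated with compound from acetone (900 ppm gives 5 μg/cm^2). Held 48 h at room temperature (R. sanguineus) or 21° C., 85% rel. hum.; then heated at 45-50° C. ≤5 min, motionless or uncoordinated ticks scored dead/moribund.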

[2] = test system: Rhipicephalus (Boophilus) microplus; assay: In vitro injection test with Rhipicephalus (Boophilus) microplus (BOOPMI Inj); details: 168 h, laid fertile eggs after 7 days, read-out: acaricidal activity
Outline: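 Test substance in DMSO; 1 μl injected into abdomen of each of 5 engorged adult female ticks, then held at 28° C., 85% rel. hum. Activity scored after 7 days from laying of fertile eggs: 100% = no eggs or all infertile, 0% = all eggs fertile.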

[3] = test system: Plutella xylostella; assay: Insecticidal testing against diamondback moth; assay type: in vivo; details: foliar, 144 h, concentration 100 ppm, cabbage leaf dip, third-stage larvae, after 6 days, read-out: pesticidal rate
Text: Insecticidal Testing Against Diamondback Moth (Plutella xylostella)

[4] = test system: Ctenocephalides felis; assay: Systemic treatment in-vivo test with cat flea on rats; details: Ctenocephalides felis, ip, intraperitoneal injection
Outline: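 Rats dosed intraperitoneally per body weight in glycerol formal (up to 25% NMP for poorly soluble compounds). 30 D. variabilis nymphs released on treatment day and weekly, 30 C. felis fleas 24 h later; live attached engorged ticks counted at 48 h (±4 h), live fleas at 24 h, efficacy versus placebo group.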

[5] = test system: Dermacentor variabilis; assay: Topical treatment in-vivo test with American dog tick nymph on rats; details: topical spot-on, 25 mg/kg
Description: Topical Treatment In-Vivo Test with American Dog Tick Nymph and Cat Flea on Rats
Type of study and overall study design: The method is a randomized non-blinded efficacy study in accordance with European animal welfare requirements. Rats (Rattus norvegicus) were randomized based on pre-treatment flea counts. The efficacy of treatment was determined by comparison of the flea and tick counts of different treatment groups versus the placebo-treated control group. The experimental unit was the individual study animal.
Method and route of administration: The compound was applied in a suitable solvent and carrier (more specifically, added to the following mixture: 33.3% by weight propylene carbonate, […] N-methylpyrrolidone, 0.1% by weight BHA, 0.05% by weight BHT) considering the individual body weight as topical spot-on between the shoulder blades directly onto the skin.
Experimental infestation: On the day of treatment and weekly thereafter, 30 ticks (D. variabilis nymphs) were released onto the back of each rat, and 30 fleas (C. felis) were released onto the back of each rat 24 h later.
Tick and Flea counting: Rats were thoroughly examined and ticks and fleas were manually removed 48 h (+4 h) after tick infestation and 24 h after flea infestation. Live fleas and live attached engorged ticks were counted. In non-evident cases, engorgement status was evaluated by squeezing the tick on a filter paper to find traces of blood as sign for engorgement.

[6] = test system: Amblyomma americanum; assay: In vitro contact test with hard ticks (Amblyomma americanum nymphs); details: read-out: acaricidal activity
Outline: as §1

[7] = test system: Ctenocephalides felis; assay: Topical treatment in-vivo test with cat flea on rats; details: topical spot-on, 25 mg/kg
Outline: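 Rats given a body-weight-based topical spot-on between the shoulder blades in propylene carbonate/N-methylpyrrolidone/BHA/BHT vehicle; infested weekly from treatment day with 30 D. variabilis nymphs, and 30 C. felis 24 h later. Live attached engorged ticks counted at 48 h and live fleas at 24 h, versus placebo controls.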

[8] = SD 2, read-out: Geometric mean percent reduction in live flea (Ctenocephalides felis) counts compared to untreated control rats
[9] = SD 9, read-out: Geometric mean percent reduction in live flea (Ctenocephalides felis) counts compared to untreated control rats
[10] = SD 16, read-out: Geometric mean percent reduction in live flea (Ctenocephalides felis) counts compared to untreated control rats
[11] = SD 23, read-out: Geometric mean percent reduction in live flea (Ctenocephalides felis) counts compared to untreated control rats

O=C(Nc1cccc(C(=O)Nc2c(I)cc(C(F)(C(F)(F)F)C(F)(F)F)cc2C(F)(F)F)c1F)c1ccc(C(F)(F)F)nc1 [Compound 67, N-(2-fluoro-3-((2-iodo-4-(perfluoropropan-2-yl)-6-(trifluoromethyl)phenyl)carbamoyl)phenyl)-6-(trifluoromethyl)nicotinamide]
pest or weed control at 0.2 µg/cm2, 0.2 µg/cm2 ([1]; dose 0.2 μg/cm^2, 48 h): 90% | pest or weed control at 1 µg/cm2, 1 µg/cm2 ([1]; dose 1 μg/cm^2, 48 h): 90% | pest or weed control at 5 µg/cm2, 5 µg/cm2 ([1]; dose 5 μg/cm^2, 48 h): 90% | pest or weed control at 0.00016 mg ([2]; dose 0.16 μg/animal injected): 100% | pest or weed control at 0.0008 mg ([2]; dose 0.8 μg/animal injected): 100% | pest or weed control at 100 ppm [3]: ≥ 70% | inhibition in vivo at 2 mg/kg [4, 8]: 100% | inhibition in vivo at 2 mg/kg [4, 9]: 96% | inhibition in vivo at 2 mg/kg [4, 10]: 78% | inhibition in vivo at 2 mg/kg [4, 11]: 11% | inhibition in vivo at 10 mg/kg [4, 8]: 100% | inhibition in vivo at 10 mg/kg [4, 9]: 100% | inhibition in vivo at 10 mg/kg [4, 10]: 93% | inhibition in vivo at 10 mg/kg [4, 11]: 61% | inhibition in vivo at 10 mg/kg ([4]; SD 30, read-out: Geometric mean percent reduction in live flea (Ctenocephalides felis) counts compared to untreated control rats): 58% | Geometric mean percent reduction in live tick (Dermacentor variabilis) counts compared to untreated control rats ([5]; SD 2): 57% | Geometric mean percent reduction in live tick (Dermacentor variabilis) counts compared to untreated control rats ([5]; SD 9): 98% | Geometric mean percent reduction in live tick (Dermacentor variabilis) counts compared to untreated control rats ([5]; SD 16): 100% | Geometric mean percent reduction in live tick (Dermacentor variabilis) counts compared to untreated control rats ([5]; SD 23): 100% | Geometric mean percent reduction in live tick (Dermacentor variabilis) counts compared to untreated control rats ([5]; SD 30): 77% | pest or weed control at 0.2 µg/cm2, 0.2 µg/cm2 ([6]; dose 0.2 μg/cm^2, 48 h): 90% | pest or weed control at 1 µg/cm2, 1 µg/cm2 ([6]; dose 1 μg/cm^2, 48 h): 90% | Geometric mean percent reduction in live flea (Ctenocephalides felis) counts compared to untreated control rats ([7]; SD 2): 98% | Geometric mean percent reduction in live flea (Ctenocephalides felis) counts compared to untreated control rats ([7]; SD 9): 93% | Geometric mean percent reduction in live flea (Ctenocephalides felis) counts compared to untreated control rats ([7]; SD 16): 97% | Geometric mean percent reduction in live flea (Ctenocephalides felis) counts compared to untreated control rats ([7]; SD 23): 81% | Geometric mean percent reduction in live flea (Ctenocephalides felis) counts compared to untreated control rats ([7]; SD 30): 79%
